Assay results as given in PMC7582705, “Structure-Based Discovery of Novel Chemical Classes of Autotaxin Inhibitors” (International Journal of Molecular Sciences, 2020).

What was measured:
[1] = molecular target: T1, ATX (Homo sapiens, UniProt Q13822); assay: IC50 Eleanna (Table S2, method not described); assay type: biochemical; conditions: Table S2; read-out: IC50 Eleanna
[2] = molecular target: T1, ATX; assay: Amplex Red Lyso-phospholipase D assay, human ATX; assay type: biochemical; parameters: purchased Sino Biological; conditions: for IC50: Table S2, Sino hATX 2nM; for inhibition at 30 µM: read-out: %inhibition at 30uM
Protocol: All compounds proposed were assessed for their ATX inhibitory activity in vitro using the Amplex Red assay. The Amplex Red Lyso-phospholipase D assay is a fluorometry-based assay providing a sensitive method for measuring Lyso-phospholipase D (ATX) activity in vitro. In this enzyme-coupled assay, ATX activity is monitored indirectly using 10-acetyl-3,7-dihydrophenoxazine (Amplex Red reagent), a sensitive fluorogenic probe for H2O2. ATX initially cleaves the Lysophosphatidylcholine (LPC) substrate to yield choline and Lysophosphatidic acid (LPA), while choline gets subsequently oxidized by choline oxidase to betaine and H2O2. Lastly, H2O2, in the presence of horseradish peroxidase (HRP), reacts with Amplex Red reagent in a 1:1 stoichiometry to generate the highly fluorescent product resorufin.
The inhibition assay was performed as previously described with some modifications in order to accommodate the newly-discovered lag phase in ATX kinetics. To this end, and in order to provide adequate time to the hydrolysis of LPC by ATX, we added a 30min incubation period between ATX, inhibitors and LPC. Briefly, 2 μL of different concentrations of inhibitors diluted in DMSO (Sigma-Aldrich, St. Louis, MO, USA) were incubated with 50 µL of ATX 8 nM (human or mouse ATX from Sino Biological), and 48 µL reaction buffer (50 mM Tris-Cl pH 8.0 from Thermo Fisher Scientific, Waltham, MA, USA and 5 mM CaCl2 from Honeywell-Fluka, Charlotte, NC, USA) in a black 96-well microplate for 15 min at 37 °C. Thence, another 50 µL of reaction buffer with 200 μM LPC substrate 16:0 (Avanti Polar Lipids Inc, Alabaster, AL, USA) ([…]) was added to the reaction mixture and incubated for 30 min at 37 °C in order for ATX to convert LPC to LPA and choline. Finally, 50 µL of working solution containing 200 μM Amplex Red (Invitrogen, Carlsbad, CA, USA), 4 U/mL HRP (Sigma-Aldrich, St. Louis, MO, USA), 0.4 U/mL choline oxidase (Sigma-Aldrich, St. Louis, MO, USA) in 50 mM Tris-HCl pH 8.0 and 5 mM CaCl2 was added to measure the produced choline. The reaction was monitored at 37 °C in a fluorescence plate reader using excitation at 530 nm and reading at 590 nm, every 5 min for 30 min. The velocity of the reaction and the remaining activity of ATX were calculated at the linear phase of the reaction and dose-response inhibition graphs were plotted with GraphPad Software (GraphPad Software, San Diego, CA, USA). […] In order to evaluate a possible effect of the compounds on the second (choline oxidase) and third (HRP) enzymes of the Amplex Red assay, we also performed the assay in the absence of ATX but in the presence of the compounds. Instead of ATX, we added choline chloride at a final concentration of 2 µM so as the second and third steps of the assay could proceed normally.

[3] = read-out: in vitro IC50 (Sino hATX 2nM)

Structure (SMILES)	IC50 [1]	IC50 [2, 3]	IC50 ([2]; in vitro IC50 (Sino hATX 2nM))	inhibition at 30 µM ([2]; Table S2, at 30uM)	%inhibition at 30uM ([2]; Table S2, at 30uM)
CCOC(=O)c1c(-c2ccccc2)oc2ccc(O)c(CN3CCCCC3C)c12 (stereo not shown) [KM-48, 2,3-dihydroxybutanedioic acid;ethyl 5-hydroxy-4-[(2-methylpiperidin-1-yl)methyl]-2-phenyl-1-benzofuran-3-carboxylate]	> 5 µM	> 30 µM	–	–	–
CCOC(=O)c1c(-c2ccccc2)oc2ccc(O)c(CN3CCC(C)CC3)c12 [KM-39, 3-ethoxycarbonyl-4-[(4-methylpiperidin-1-ium-1-yl)methyl]-2-phenyl-1-benzofuran-5-olate]	5 µM	–	> 30 µM	–	–
Cc1ccc(C)c(NC(=O)CSc2cn(CC(=O)N3CCCC3)c3ccccc23)c1 [KM-21, N-(2,5-dimethylphenyl)-2-[1-(2-oxo-2-pyrrolidin-1-ylethyl)indol-3-yl]sulfanylacetamide]	> 5 µM	–	> 30 µM	–	–
CCOC(=O)c1c(CN2CCCCC2)n(-c2ccccc2)c2cc(Br)c(OC)cc12 [KM-6, ethyl 6-bromo-5-methoxy-1-phenyl-2-(piperidin-1-ylmethyl)indole-3-carboxylate]	4.5 µM	–	> 30 µM	20.6%	–
COc1ccc(NC(=S)N2CCn3cccc3C2c2ccc(OC)c(OC)c2)cc1 (stereo not shown) [KM-31, 1-(3,4-dimethoxyphenyl)-N-(4-methoxyphenyl)-3,4-dihydro-1H-pyrrolo[1,2-a]pyrazine-2-carbothioamide]	4.5 µM	–	> 30 µM	–	–
COc1ccccc1C(=O)NCc1nc2ccccc2n1Cc1cc(C)ccc1C [KM-9, N-[[1-[(2,5-dimethylphenyl)methyl]benzimidazol-2-yl]methyl]-2-methoxybenzamide,]	5 µM	–	> 30 µM	17.1%	–
CCOC(=O)Cc1c(CN2CCN(C)CC2)c2ccccc2n1Cc1ccccc1 [KM-30, ethyl 2-[1-benzyl-3-[(4-methylpiperazin-1-yl)methyl]indol-2-yl]acetate]	5 µM	–	> 30 µM	0%	–
COc1cc([C@H]2c3cccn3CCN2C(=S)Nc2ccccc2C)cc(OC)c1OC [KM-27, N-(o-tolyl)-1-(3,4,5-trimethoxyphenyl)-3,4-dihydro, (1S)-N-(2-methylphenyl)-1-(3,4,5-trimethoxyphenyl)-3,4-dihydro-1H-pyrrolo[1,2-a]pyrazine-2-carbothioamide]	1 µM	> 30 µM	–	–	–
CCc1ccccc1NC(=O)C1c2ccccc2C(=O)N(CCOC)C1c1cccs1 (stereo not shown) [KM-4, N-(2-ethylphenyl)-2-(2-methoxyethyl)-1-oxo-3-thiophen-2-yl-3,4-dihydroisoquinoline-4-carboxamide]	> 5 µM	–	> 30 µM	–	–
CCOC(=O)c1c(-c2ccccc2)oc2ccc(O)c(CN3CCC(C)CC3)c12.Cl [KM-40, ethyl 5-hydroxy-4-[(4-methylpiperidin-1-yl)methyl]-2-phenyl-1-benzofuran-3-carboxylate;hydrochloride]	–	> 30 µM	–	–	41.295%

The next lines start with the values.

IC50 [1]	IC50 [2, 3]	IC50 ([2]; in vitro IC50 (Sino hATX 2nM))	inhibition at 30 µM ([2]; Table S2, at 30uM)	%inhibition at 30uM ([2]; Table S2, at 30uM)	Structure (SMILES)
> 5 µM	–	> 30 µM	–	–	COc1ccc(C2SCCN2S(=O)(=O)c2ccc3c(c2)Cc2ccccc2-3)cc1 (stereo not shown) [SC-8, 3-(9H-fluoren-2-ylsulfonyl)-2-(4-methoxyphenyl)-1,3-thiazolidine]
> 5 µM	–	> 30 µM	–	–	Cc1ccc(-n2nc3c(c2NC(=O)c2ccc4ccccc4c2)C[S+]([O-])C3)cc1 (stereo not shown) [SC-27, N-[2-(4-methylphenyl)-5-oxo-4,6-dihydrothieno[3,4-c]pyrazol-3-yl]naphthalene-2-carboxamide]
> 5 µM	–	> 30 µM	–	–	O=C1NC(=O)C(=Cc2cn(Cc3ccc4ccccc4c3)c3ccccc23)S1 [SC-45, 5-[[1-(naphthalen-2-ylmethyl)indol-3-yl]methylidene]-1,3-thiazolidine-2,4-dione]
3.4 µM	–	> 30 µM	38.6%	–	Cc1ccccc1-n1nc2c(c1NC(=O)c1ccc3ccccc3c1)CS(=O)(=O)C2 [SC-47, N-[2-(2-methylphenyl)-5,5-dioxo-4,6-dihydrothieno[3,4-c]pyrazol-3-yl]naphthalene-2-carboxamide]
> 5 µM	–	> 30 µM	–	–	O=C(Nc1c2c(nn1-c1ccccc1)CS(=O)(=O)C2)c1cccc2ccccc12 [SC-6, N-(5,5-dioxo-2-phenyl-4,6-dihydrothieno[3,4-c]pyrazol-3-yl)naphthalene-1-carboxamide]
> 5 µM	–	> 30 µM	–	–	Cn1c(-c2ccccc2)c(C(=O)Cn2cnc3ccsc3c2=O)c2ccccc21 [SC-10, 3-[2-(1-methyl-2-phenylindol-3-yl)-2-oxoethyl]thieno[3,2-d]pyrimidin-4-one]
> 5 µM	–	> 30 µM	–	–	O=C(Cc1cccc2ccccc12)Nc1c2c(nn1-c1ccccc1)C[S+]([O-])C2 (stereo not shown) [SC-7, 2-naphthalen-1-yl-N-(5-oxo-2-phenyl-4,6-dihydrothieno[3,4-c]pyrazol-3-yl)acetamide]
> 5 µM	–	> 30 µM	–	–	O=S(=O)(c1ccc(F)cc1)N1C=Cc2ccccc2C1c1c[nH]c2ccccc12 (stereo not shown) [SC-4, 2-(4-fluorophenyl)sulfonyl-1-(1H-indol-3-yl)-1H-isoquinoline]
> 5 µM	–	> 30 µM	–	–	O=C(Nc1c2c(nn1-c1ccccc1)C[S+]([O-])C2)c1cccc2ccccc12 (stereo not shown) [SC-9, N-(5-oxo-2-phenyl-4,6-dihydrothieno[3,4-c]pyrazol-3-yl)naphthalene-1-carboxamide]
> 5 µM	–	> 30 µM	–	–	Cc1ncc(-c2ccc(NS(=O)(=O)c3ccc4c5c(cccc35)CC4)cc2)o1 [SC-37, N-[4-(2-methyl-1,3-oxazol-5-yl)phenyl]-1,2-dihydroacenaphthylene-5-sulfonamide]
5 µM	–	> 30 µM	16%	–	O=C(Cn1cnc2ccsc2c1=O)c1c(-c2ccccc2)[nH]c2ccccc12 [SC-34, 3-[2-oxo-2-(2-phenyl-1H-indol-3-yl)ethyl]thieno[3,2-d]pyrimidin-4-one]
> 5 µM	–	> 30 µM	–	–	CN1C(=O)C(=NNC(=O)c2cc(-c3cccs3)nc3ccccc23)c2ccccc21 [SC-40, N-[(1-methyl-2-oxoindol-3-ylidene)amino]-2-thiophen-2-ylquinoline-4-carboxamide]
> 5 µM	–	> 30 µM	9.6%	–	O=C(Nc1c2c(nn1-c1ccc(F)cc1)C[S+]([O-])C2)c1cccc2ccccc12 (stereo not shown) [SC-14, N-[2-(4-fluorophenyl)-5-oxo-4,6-dihydrothieno[3,4-c]pyrazol-3-yl]naphthalene-1-carboxamide]
> 5 µM	–	> 30 µM	–	–	Cc1ccc(-n2nc3c(c2NC(=O)c2cccc4ccccc24)CS(=O)(=O)C3)cc1 [SC-43, N-[2-(4-methylphenyl)-5,5-dioxo-4,6-dihydrothieno[3,4-c]pyrazol-3-yl]naphthalene-1-carboxamide]
> 5 µM	–	> 30 µM	–	–	Cc1ccc(S(=O)(=O)N2CCN3C(=O)c4ccccc4C32c2ccccc2)cc1 (stereo not shown) [SC-26, 1-(4-methylphenyl)sulfonyl-9b-phenyl-2,3-dihydroimidazo[2,1-a]isoindol-5-one]
> 5 µM	> 30 µM	–	–	–	CC12N[N+](c3ccccc3)=C(c3ccccc3)C1S(=O)(=O)c1ccccc12 (stereo not shown) [SC-36, 8b-methyl-2,3-diphenyl-1,3a-dihydro-[1]benzothiolo[3,2-c]pyrazol-2-ium 4,4-dioxide]
